The assay deals with Lampyridae.

Description: Michaelis-Menten constant for binding affinity towards firefly luciferase

For the molecule `O=C(O)[C@H]1CSC(c2nc3ccc(O)c(I)c3s2)=N1`, the Km turned out to be 4.28 µM.

(Values after ChEMBL document CHEMBL1147587, “Synthesis of 7'-[123I]iodo-D-luciferin for in vivo studies of firefly luciferase gene expression” (Bioorg Med Chem Lett, 2004).)
